The values below come from US8703785B2, “2-aminopyrimidin-4-one and 2-aminopyridine derivatives both having BACE1-inhibiting activity” (Shionogi & Co., Ltd., priority 2008, dated 2014).

One data set deals with hERG (IKr) (Homo sapiens (Human), UniProt Q12809). Nature of the data set: hERG test. As to conditions: HEK293 cells expressing hERG channel, pH 7.4, HEK293 cell expressing hERG, compound concentration 5 μM, read-out: inhibitory percentage (IKr maximum tail current). It counts as cell-based. The source says: For the purpose of risk assessment for QT prolongation on an electrocardiogram, the action on delayed rectifier K+ current (IKr) which plays an important role on a process of ventricular repolarization was studied using a HEK293 cell with a human ether-a-go-go related gene (hERG) channel expressed therein. A cell was maintained at a membrane potential of −80 mV, and then +40 mV of a depolarizing stimulus was applied to the cell for 2 seconds and further −50 mV of a repolarizing stimulus was applied thereto for 2 seconds by a whole-cell patch clamp technique with a fully-automatic patch clamp system (PatchXpress 7000A, Axon Instruments Inc.), and the induced IKr was recorded. […] The absolute value of the maximum tail current was determined from the obtained IKr with an analysis software (DataXpress ver. 1, Molecular Devices Corporation) based on a current value at a maintained membrane potential. Further, an inhibitory percentage relative to the maximum tail current before application of the test compound was calculated, and influence of the test compound on IKr was evaluated in comparison with the medium application group (0.1% dimethyl sulfoxide solution). […]
Chain of hERG (IKr) (Q12809 whole entry): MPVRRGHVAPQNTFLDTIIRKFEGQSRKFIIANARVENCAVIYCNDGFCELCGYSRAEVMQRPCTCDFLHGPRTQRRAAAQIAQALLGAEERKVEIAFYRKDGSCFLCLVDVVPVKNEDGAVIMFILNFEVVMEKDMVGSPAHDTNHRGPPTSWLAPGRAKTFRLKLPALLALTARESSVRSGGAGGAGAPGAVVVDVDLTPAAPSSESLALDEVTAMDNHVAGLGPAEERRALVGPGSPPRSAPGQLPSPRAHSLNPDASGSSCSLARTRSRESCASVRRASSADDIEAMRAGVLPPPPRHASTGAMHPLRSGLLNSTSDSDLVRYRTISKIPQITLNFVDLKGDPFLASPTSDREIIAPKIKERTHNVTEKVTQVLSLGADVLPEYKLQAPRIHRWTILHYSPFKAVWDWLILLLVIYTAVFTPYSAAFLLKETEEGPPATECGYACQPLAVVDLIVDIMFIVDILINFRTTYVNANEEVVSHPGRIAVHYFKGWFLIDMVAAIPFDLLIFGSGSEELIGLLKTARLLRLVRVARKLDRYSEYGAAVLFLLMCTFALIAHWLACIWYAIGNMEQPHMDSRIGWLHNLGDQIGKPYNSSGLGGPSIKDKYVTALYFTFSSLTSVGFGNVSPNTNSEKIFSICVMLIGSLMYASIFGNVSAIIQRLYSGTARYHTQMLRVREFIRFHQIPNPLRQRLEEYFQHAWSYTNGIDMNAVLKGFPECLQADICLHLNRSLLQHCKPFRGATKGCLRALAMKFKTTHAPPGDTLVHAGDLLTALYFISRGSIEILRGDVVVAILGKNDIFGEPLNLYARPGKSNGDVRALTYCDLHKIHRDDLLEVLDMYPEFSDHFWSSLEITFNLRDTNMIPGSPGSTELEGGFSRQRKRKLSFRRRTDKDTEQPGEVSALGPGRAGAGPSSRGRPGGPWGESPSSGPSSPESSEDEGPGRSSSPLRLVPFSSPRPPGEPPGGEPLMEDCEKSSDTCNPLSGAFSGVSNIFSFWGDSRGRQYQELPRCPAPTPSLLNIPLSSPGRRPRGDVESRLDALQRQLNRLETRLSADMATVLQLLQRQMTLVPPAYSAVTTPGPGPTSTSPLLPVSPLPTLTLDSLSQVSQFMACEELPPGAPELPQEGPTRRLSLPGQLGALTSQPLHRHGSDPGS

A further data set deals with Recombinant human BACE-1 (Homo sapiens (Human), UniProt P56817). Nature of the data set: Measurement of BACE1 inhibitory activity. It counts as biochemical. The note with it: Recombinant human BACE-1 7.4 nM, substrate peptide 18 nM, pH 5.0, 3 hours at 30° C.; read-out: IC50 (BACE1 enzyme activity). How it is done:
First, 48.5 μl portions of a solution of substrate peptide (Biotin-XSEVNLDAEFRHDSGC-Eu: X=ε-amino-n-capronic acid, Eu=Europium cryptate) were put into respective wells of a 96-well half area microplate (black microplate, Costar). Then, 0.5 μl of a test compound (DMSO (dimethyl sulfoxide) solution) and 1 μl of Recombinant human BACE-1 (R&D systems) were added to each of the wells, and they were reacted for 3 hours at 30° C. […] The final concentration of the substrate peptide was set to 18 nM, and the final concentration of Recombinant human BACE-1 was set to 7.4 nM. The reaction buffer used was a sodium acetate buffer (50 mM sodium acetate, pH 5.0, 0.008% Triton X-100). After the reaction finished, 50 μl portions of a 8.0 μg/ml solution of Streptavidin-XL665 (CIS bio international) in a phosphate buffer (150 mM K2HPO4—KH2PO4, pH 7.0, 0.008% Triton X-100, 0.8 M KF) were added to the respective wells, and the plate was left standing for 1 hour at 30° C. Thereafter, the fluorescence intensity (excitation wavelength: 320 nm, measurement wavelength: 620 nm and 665 nm) was measured with a Wallac 1420 multilabel counter (Perkin Elmer life sciences). The enzyme activity was determined from the count rate at each measurement wavelength (10000× Count 665/Count 620), and the amount needed to inhibit the enzyme activity by 50% (IC50) was calculated.

The next data set has as its target CYP3A4 (Homo sapiens (Human), UniProt P08684). Nature of the data set: CYP3A4 fluorescent MBI test. Type of data set: in vitro ADME. As to conditions: E. coli-expressing CYP3A4, 7-BFC substrate, pre-reaction 0 or 30 minutes. How it is done: The CYP3A4 fluorescent MBI test is a test to examine enhancement of CYP3A4 inhibition by metabolic reaction of the compound. Here, E. coli-expressing CYP3A4 was used as an enzyme, and a reaction wherein 7-benzyloxy trifluoromethylcumarin (7-BFC) was debenzylated by the CYP3A4 enzyme into a fluorescent metabolite 7-hydroxytrifluoromethylcumarin (HFC) was employed as an indicator reaction. The reaction conditions were as follows.
Substrate: 5.6 μmol/L 7-BFC
Pre-reaction time: 0 or 30 minutes
Reaction time: 15 minutes
Reaction temperature: 25° C. (room temperature)
CYP3A4 content (E. coli-expressing enzyme): 62.5 pmol/mL at pre-reaction, […] at reaction (10-fold diluted) […]
The enzyme and a test compound solution were added to a K-Pi buffer (pH 7.4) in the aforementioned amounts for the pre-reaction so that a pre-reaction solution was prepared, and this solution was put into a 96-well microplate. […] With respect to each of the microplates on which the indicator reaction was performed, the fluorescence value of the metabolite 7-HFC was measured with a fluorescence plate reader (Ex=420 nm, Em=535 nm). […] The remaining activity (%) at each concentration after adding the test compound solution was calculated, and the IC50 value was calculated from the concentration and inhibition percentage by inverse estimation with the logistic model. […]

The test system of data set [1] is Neuroblastoma SH-SY5Y cells (SH/APPwt) with human wild-type β-APP excessively expressed. Nature of the data set: Measurement of β-amyloid (Aβ) production inhibitory effect in cell. Type of data set: cell-based. The note with it: 24 hours incubation, Amyloid-β 1-40 HTRF. How it is done:
Neuroblastoma SH-SY5Y cells (SH/APPwt) with human wild-type β-APP excessively expressed therein were prepared at 8×10^5 cells/mL, and 150 μl portions thereof were inoculated into respective wells of a 96-well culture plate (Falcon). The cells were cultured for 2 hours at 37° C. in a 5% gaseous carbon dioxide incubator. […] Namely, the final DMSO concentration was 1%, and the amount of the cell culture was 200 μl. After the incubation was performed for 24 hours from the addition of the test compound, 100 μl of the culture supernatant was collected from each fraction. The amount of the Aβ in each fraction was measured. The Aβ amount was measured as follows. 10 μl of a homogeneous time resolved fluorescence (HTRF) measurement reagent (Amyloid-β 1-40 peptide; IBA Molecular Holding, S.A.) and 10 μl of the culture supernatant were put into a 384-well half area microplate (black microplate, Costar) and mixed with each other, and then left standing overnight at 4° C. while the light was shielded. Then, the fluorescence intensity (excitation wavelength: 337 nm, measurement wavelength: 620 nm and 665 nm) was measured with a Wallac 1420 multilabel counter (Perkin Elmer life sciences).
Background: In TR-FRET formats the signal depends on donor and acceptor labels being close together.

Chain of CYP3A4 (P08684 whole entry): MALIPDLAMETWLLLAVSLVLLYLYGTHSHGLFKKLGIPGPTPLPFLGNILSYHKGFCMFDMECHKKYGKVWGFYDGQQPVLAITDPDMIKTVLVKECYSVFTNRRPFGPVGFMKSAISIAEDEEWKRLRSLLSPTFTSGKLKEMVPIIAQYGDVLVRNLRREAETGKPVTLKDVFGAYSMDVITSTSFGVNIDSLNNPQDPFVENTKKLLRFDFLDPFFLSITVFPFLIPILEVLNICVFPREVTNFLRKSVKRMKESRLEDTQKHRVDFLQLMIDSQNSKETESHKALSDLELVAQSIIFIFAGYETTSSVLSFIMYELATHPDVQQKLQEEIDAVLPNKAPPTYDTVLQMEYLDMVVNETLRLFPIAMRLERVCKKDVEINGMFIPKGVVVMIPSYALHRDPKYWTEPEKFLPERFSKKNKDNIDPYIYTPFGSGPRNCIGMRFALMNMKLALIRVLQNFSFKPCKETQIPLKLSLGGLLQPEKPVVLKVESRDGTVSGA
Chain of Recombinant human BACE-1 (P56817 46-501): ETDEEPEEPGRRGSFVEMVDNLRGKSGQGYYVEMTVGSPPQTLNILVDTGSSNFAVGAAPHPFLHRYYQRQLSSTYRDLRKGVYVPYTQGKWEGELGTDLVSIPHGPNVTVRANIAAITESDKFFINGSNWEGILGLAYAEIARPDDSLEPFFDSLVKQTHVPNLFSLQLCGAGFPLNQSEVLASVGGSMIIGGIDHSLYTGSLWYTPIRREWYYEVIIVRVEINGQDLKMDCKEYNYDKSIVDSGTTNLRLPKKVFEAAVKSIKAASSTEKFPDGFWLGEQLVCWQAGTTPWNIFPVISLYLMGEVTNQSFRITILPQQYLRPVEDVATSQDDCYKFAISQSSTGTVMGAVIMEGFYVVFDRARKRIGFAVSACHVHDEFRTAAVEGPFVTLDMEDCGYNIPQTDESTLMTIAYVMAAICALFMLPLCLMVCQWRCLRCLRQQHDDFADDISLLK

Consider `COCCOc1cnc(C(=O)Nc2cccc(C3(C)CC(=O)N(C)C(N)=N3)c2)cn1` (stereo not shown) [Compound 40], for which, at hERG (IKr), the inhibition at 10 min, 5 µM came to 4.1%. In addition, the IC50 was found to be 14 nM at Recombinant human BACE-1 and 0.9 nM in data set [1]. Moreover, the IC50 difference without vs with pre-reaction at CYP3A4 is ≤ 3000 nM.

One may read the IC50 as the concentration needed to halve the response being measured.
